Here are results for 89 sequences from the OligoGym collection.

Where “and” joins values, the source holds several entries; their conditions need not be identical. Identical values can stand only once. After the bases stand the sugars from the 5' end (letter, count) and the backbone: PS all phosphorothioate, else s phosphorothioate and o phosphodiester by linkage. Methylation of C is not given here. e = 2'-O-(2-methoxyethyl) (MOE); k = constrained ethyl (cEt); d = 2'-deoxy (DNA); m = 2'-O-methyl

For one series, the target named is HSD17B13. The settings on record: ASO, HepaRG, 0.02 µM.
In turn, “GTTGATATTCTGTGGC (sugars k3 d9 k3 e1, PS)” came in with a target mRNA inhibition of 23%.
Sequence GTTGATATTCTGTGGC (sugars k3 d10 k3, PS) returned a target mRNA inhibition of 23%.
Turning to “TAAAATAGAGTCGGTC (sugars k3 d9 k3 e1, PS)”, the target mRNA inhibition was found to be 0%.

The series is the same for the next values; noted with them: ASO, HepaRG, 0.078 µM.
The sequence “GTTGATATTCTGTGGC (sugars k3 d9 k3 e1, PS)” yielded a target mRNA inhibition of 17%.
In turn, GTTGATATTCTGTGGC (sugars k3 d10 k3, PS) gave a target mRNA inhibition of 42%.
Take “TAAAATAGAGTCGGTC (sugars k3 d9 k3 e1, PS)”: the target mRNA inhibition was determined as 12%.

Staying with this series, now noted: ASO, HepaRG, 0.313 µM.
Take “GTTGATATTCTGTGGC (sugars k3 d9 k3 e1, PS)”: the target mRNA inhibition was 49%.
In the case of GTTGATATTCTGTGGC (sugars k3 d10 k3, PS), the target mRNA inhibition is 53%.
Still for that read-out and setting: for “TAAAATAGAGTCGGTC (sugars k3 d9 k3 e1, PS)” the value was 31%.

Staying with this series, now noted: ASO, HepaRG, 1 µM.
In the case of GTTATTGTAGGGATTG (sugars k3 d10 k3, PS), the target mRNA inhibition came to 69%.
The same measure, in the same setting: for “GTTAUTCTCTTGACAA (sugars k3 d1 m1 d8 k3, PS)” the value was 29%; for GTTCAGTCCTTGTGTA (sugars k3 d10 k3, PS), 38%; for GTTCTTATCCACACCT (sugars k3 d10 k3, PS), 57%.
“GTTGAGATAAAGCTGC (sugars k3 d1 m1 d8 k3, PS)” yielded a target mRNA inhibition of 51%.
In turn, “GTTGAGATAAAGCTGC (sugars kkdddddddddkekek, PS)” showed a target mRNA inhibition of 40%.
Still for that read-out and setting: the same measure for “GTTGATATTCTGTGGC (sugars k3 d9 k3 e1, PS)”: 73% and 50%.
Regarding GTTGATATTCTGTGGC (sugars k3 d10 k3, PS), the target mRNA inhibition was determined as 80%.
Same read-out and setting: the same measure for “GTTGCACCGTTTTGGG (sugars kkdddddddddkekek, PS)”: 35%; for GTTTATCAGTAAAGTG (sugars k3 d10 k3, PS): 64%.
Same read-out and setting: for GTTTTGCAAGTTTATC (sugars k3 d10 k3, PS) the value was 73%; for “GTTTUTAAGAGGCATG (sugars k3 d1 m1 d8 k3, PS)”, 38%.
Still for that read-out and setting: the same measure for TAAAAAATTGGTTTCG (sugars k3 d10 k3, PS): 22%; for “TAAAATAGAGTCGGTC (sugars k3 d1 m1 d8 k3, PS)”: 52%; for “TAAAATAGAGTCGGTC (sugars k3 d9 k3 e1, PS)”: 74%.
For the sequence TAAACAATATTAAGGG (sugars k3 d10 k3, PS), the target mRNA inhibition amounted to 0%.
As for TAAACATAGGCTTAGT (sugars k3 d10 k3, PS), the target mRNA inhibition is 34%.
Take “TAAACATCTCTGGGAC (sugars k3 d9 k3 e1, PS)”: the target mRNA inhibition is 32%.
The sequence “TAAACCTTCCCTGTGT (sugars k3 d1 m1 d8 k3, PS)” yielded a target mRNA inhibition of 46%.
The same measure, in the same setting: for TAAACTAAAGTACTTG (sugars k3 d10 k3, PS) the value was 1%.
On the same count and under the same terms, the same measure for TAAACTAGTGGTAATG (sugars k3 d10 k3, PS): 14%; for TAAATACCCTTGGTGG (sugars k3 d10 k3, PS): 7%.
On to TAAATCAGGCAGTCAT (sugars k3 d10 k3, PS), for which the target mRNA inhibition was 35%.
The sequence TAACTACATGACCTGG (sugars k3 d10 k3, PS) had a target mRNA inhibition of 37%.
As to TAACTGAGCTAGACAA (sugars k3 d10 k3, PS), the target mRNA inhibition turned out to be 53%.
In the case of “TAAGAGGCATGAAAGG (sugars kkdddddddddkekek, PS)”, the target mRNA inhibition came out at 54%.
The sequence “TAAGATACCCAGGTTG (sugars k3 d1 m1 d8 k3, PS)” displayed a target mRNA inhibition of 11%.
On the same count and under the same terms, for “TAAGCAGAATTGTGAA (sugars k3 d9 k3 e1, PS)” the value was 52%; for “TAAGCTGAGAGTTCTA (sugars k3 d1 m1 d8 k3, PS)”, 27%; for “TAAGCTGAGAGTTCTA (sugars kkdddddddddkekek, PS)”, 29%.
Still for that read-out and setting: the same measure for TAAGGATCATTGCAGA (sugars k3 d10 k3, PS): 0%; for TAAGTAGTCTGCCTGC (sugars k3 d10 k3, PS): 19%; for TAAGTATTCCATCTAT (sugars k3 d10 k3, PS): 31%.
In turn, “TAATACATTAGCAAGC (sugars k3 d1 m1 d8 k3, PS)” displayed a target mRNA inhibition of 26%.
“TAATAGCCAGTACAGT (sugars k3 d1 m1 d8 k3, PS)” returned a target mRNA inhibition of 51%.
“TAATAGCCAGTACAGT (sugars kkdddddddddkekek, PS)” returned a target mRNA inhibition of 44%.
In the case of TAATCATGGGACAGGA (sugars k3 d10 k3, PS), the target mRNA inhibition is 15%.
The same measure, in the same setting: for TAATCTTGTGCTTGGA (sugars k3 d10 k3, PS) the value was 54%; for TAATGTATGAGGTCTC (sugars k3 d10 k3, PS), 51%; for TAATTAATCTTGTTCG (sugars k3 d10 k3, PS), 63%.
On the same count and under the same terms, the same measure for TAATTCTAAACTAGTG (sugars k3 d10 k3, PS): 11%.
The same measure, in the same setting: for TACATATCAATGCCTT (sugars k3 d10 k3, PS) the value was 38%; for TACCAAGAGGGTTTTT (sugars k3 d10 k3, PS), 17%; for TACTATTCTCCAACTC (sugars k3 d10 k3, PS), 47%.
On to TACTTACTTCTGTAGT (sugars k3 d10 k3, PS), for which the target mRNA inhibition amounted to 12%.
Turning to “TAGAATAGTCTTCAGC (sugars k3 d9 k3 e1, PS)”, the target mRNA inhibition was determined as 50%.
On the same count and under the same terms, for TAGAATTAAGGGCTAT (sugars k3 d10 k3, PS) the value was 31%.
Same read-out and setting: for TAGAATTGTCTGTTAG (sugars k3 d10 k3, PS) the value was 9%.
Still for that read-out and setting: for TAGAGAGCATAAGTTA (sugars k3 d10 k3, PS) the value was 59%; for TAGAGAGCGATAGATC (sugars k3 d10 k3, PS), 22%.
The sequence “TAGAGTCGGTCACCTT (sugars kkdddddddddkekek, PS)” gave a target mRNA inhibition of 48%.
Turning to “TAGCCAGTACAGTTCC (sugars k3 d1 m1 d8 k3, PS)”, the target mRNA inhibition came out at 70%.
On the same count and under the same terms, for TAGCCAGTACAGTTCC (sugars k3 d10 k3, PS) the value was 52%; for “TAGCCAGTACAGTTCC (sugars kkdddddddddkekek, PS)”, 57%.
Regarding TAGCTAATGTATGAGG (sugars k3 d10 k3, PS), the target mRNA inhibition was determined as 48%.
The same measure, in the same setting: for TAGCTATTGTCTTTGA (sugars k3 d10 k3, PS) the value was 63%; for TAGCTTAAACTCCAAT (sugars k3 d10 k3, PS), 60%.
TAGCTTTTGTCCACCT (sugars k3 d10 k3, PS) came in with a target mRNA inhibition of 60%.
Same read-out and setting: the same measure for TAGGAAAGCTCATGGT (sugars k3 d10 k3, PS): 27%.
Still for that read-out and setting: the same measure for TAGGAGTAGATGATGG (sugars k3 d10 k3, PS): 15%; for TAGGATTAATCATGGG (sugars k3 d10 k3, PS): 47%; for TAGGCTAAACCCTGGA (sugars k3 d10 k3, PS): 64%.
On the same count and under the same terms, the same measure for TAGGTAGCTAATGTAT (sugars k3 d10 k3, PS): 34%; for “TAGTAATCACAAGTAA (sugars k3 d9 k3 e1, PS)”: 65%.
TAGTAATTGCATCTGC (sugars k3 d10 k3, PS) had a target mRNA inhibition of 51%.
Consider TAGTAATTGCTATAGT (sugars k3 d10 k3, PS), for which the target mRNA inhibition is 7%.
The same measure, in the same setting: the same measure for TAGTACCAAGACACTA (sugars k3 d10 k3, PS): 27%.
Sequence “TAGTATAGTTATCTTC (sugars k3 d9 k3 e1, PS)” displayed a target mRNA inhibition of 28%.
Sequence “TAGTATAGTTATCTTC (sugars kkdddddddddkekek, PS)” gave a target mRNA inhibition of 34%.
TAGTCTGCCTGCCTAT (sugars k3 d10 k3, PS) had a target mRNA inhibition of 44%.
Sequence “TAGTCTTCAGCAAAGT (sugars k3 d1 m1 d8 k3, PS)” showed a target mRNA inhibition of 41%.
Sequence TAGTCTTGATGTAGTG (sugars k3 d10 k3, PS) yielded a target mRNA inhibition of 55%.
Same read-out and setting: for “TAGTCTTGATGTAGTG (sugars kkdddddddddkekek, PS)” the value was 43%.
“TAGTGGACTTCATTAG (sugars kkdddddddddkekek, PS)” yielded a target mRNA inhibition of 41%.
Same read-out and setting: the same measure for TAGTGGGAGTCGGATT (sugars k3 d10 k3, PS): 54%; for TAGTGTAGAATTGTCT (sugars k3 d10 k3, PS): 46%; for TAGTTTTCGGCACTCA (sugars k3 d10 k3, PS): 35%.
For TATAACTGGAAGGAGG (sugars k3 d10 k3, PS), the target mRNA inhibition was determined as 44%.
Same read-out and setting: for TATAATTACAACCTGG (sugars k3 d10 k3, PS) the value was 46%; for “TATAGACTGGGTAGGA (sugars k3 d9 k3 e1, PS)”, 55%; for TATAGACTGGGTAGGA (sugars k3 d10 k3, PS), 61%.
On the same count and under the same terms, the same measure for TATAGCTAAGTATACT (sugars k3 d10 k3, PS): 23%.
The sequence “TATAGTTATCTTCTCA (sugars k3 d9 k3 e1, PS)” yielded a target mRNA inhibition of 59%.
On the same count and under the same terms, the same measure for TATCAAAATGGTGGCG (sugars k3 d10 k3, PS): 18%.
On the same count and under the same terms, for “TATCAGACTTCTTACG (sugars k3 d1 m1 d8 k3, PS)” the value was 27%.
Still for that read-out and setting: the same measure for “TATCAGACTTCTTACG (sugars k3 d9 k3 e1, PS)”: 28%; for TATCAGACTTCTTACG (sugars k3 d10 k3, PS): 59%; for “TATCAGACTTCTTACG (sugars kkdddddddddkekek, PS)”: 32%.
In turn, TATGGTAAGCCCCATG (sugars k3 d10 k3, PS) came in with a target mRNA inhibition of 30%.

Staying with this series, now noted: ASO, HepaRG, 1.25 µM.
“GTTGATATTCTGTGGC (sugars k3 d9 k3 e1, PS)” yielded a target mRNA inhibition of 61%.
On the same count and under the same terms, for GTTGATATTCTGTGGC (sugars k3 d10 k3, PS) the value was 87%; for “TAAAATAGAGTCGGTC (sugars k3 d9 k3 e1, PS)”, 55%.

Staying with this series, now noted: ASO, HepaRG, 5 µM.
As for “GTTGATATTCTGTGGC (sugars k3 d9 k3 e1, PS)”, the target mRNA inhibition was 55%.
The same measure, in the same setting: for GTTGATATTCTGTGGC (sugars k3 d10 k3, PS) the value was 93%; for “TAAAATAGAGTCGGTC (sugars k3 d9 k3 e1, PS)”, 77%.
